# Data as given in US20200046836A1, “Terpene Carrier” (priority 2015, published 2020).
# Where two headings read alike, the source gives them in different places.
# Experiments:
# [1] = cited from earlier work
# [2] = reported; cited from earlier work
# [3] = Amount of lipophilic active ingredient that the carrier can hold in solution; type: physicochemical; details: Example 7
smiles,measurement,setting,value
C=C1CC/C=C(\C)CC[C@@H]2[C@@H]1CC2(C)C [Beta-caryophyllene],LD50 (Lethal Dose),[1]; in vivo,> 5000 mg/kg
C=CC(C)(O)CCC=C(C)C (stereo not shown) [Linalool],LD50 (Lethal Dose),[1]; in vivo,3000 mg/kg
"CN1CCCC1c1cccnc1 (stereo not shown) [nicotine, reference compound]",LD50 (Lethal Dose),[1]; nicotine as comparison,40 to 60 mg/kg
C=CC(=C)CCC=C(C)C [Myrcene],LD50 (Lethal Dose),[1]; in vivo,> 5000 mg/kg
"CCCCCc1cc(O)c2c(c1)OC(C)(CCC=C(C)C)C=C2 (stereo not shown) [CBC, cannabichromene]",effectiveness relative to CBD in the treatment of anxiety and stress,[2],about ten times more effective than CBD
"C=C(C)[C@@H]1CCC(C)=C[C@H]1c1c(O)cc(CCCCC)cc1O [CBD, cannabidiol]",keeping CBD in solution in the propylene glycol/glycerine mixture,[3]; control carrier,difficult to maintain 10% by weight
same,CBD content of solution that could be prepared in the terpene mixture,[3]; terpene mixture,at least 30 % by weight
